# Values of other authors, collected in patent US8841476B2, “Preparation of crystalline ezatiostat hydrochloride ansolvate form D” (Telik, Inc., priority 2010, dated 2014).
# Like-named read-outs stand apart in the source and are kept apart here.
# Columns and labels:
# [1] = test system: HL-60 promyelocytic leukemia cells; settings: in vitro
# [2] = in vitro
# [3] = in vivo
# [4] = test system: hematopoietic progenitor cells in normal human peripheral blood
# [5] = ezatiostat hydrochloride in a liposomal injectable formulation, MDS trial, Raza et al. 2009
structure (smiles),measurement,setting,value
CCOC(=O)[C@@H](N)CCC(=O)N[C@@H](CSCc1ccccc1)C(=O)N[C@@H](C(=O)OCC)c1ccccc1 [Ezatiostat],differentiation of HL-60 promyelocytic leukemia cells,[1],induce the differentiation
same,potentiation of the activity of cytotoxic agents,[2],potentiate the activity of cytotoxic agents
same,potentiation of the activity of cytotoxic agents,[3],potentiate the activity of cytotoxic agents
same,colony formation of hematopoietic progenitor cells,[4],stimulate colony formation of all three lineages
same,white blood cell production,animals in which white blood cells were depleted by treatment with cisplatin or fluorouracil,increase white blood cell production
same,white blood cell production,normal animals,increase white blood cell production
same,hematologic improvement,[5],multi-lineage hematologic improvement
same,tolerability,[5],well tolerated
